From US20220313698A1, “MODULATORS OF CYSTIC FIBROSIS TRANSMEMBRANE CONDUCTANCE REGULATOR” (Vertex Pharmaceuticals Incorporated, priority 2019, published 2022)

Legend:
[1] = molecular target: T1, CFTR-mediated chloride transport (Homo sapiens, UniProt P13569); test: Corrector Assay B - membrane potential dye assay (enteroid cells); settings: for Corrector Assay B % activity: % of chloride transport of triple combination control (3 μM Compound A + 3 μM tezacaftor + 300 nM ivacaftor); for EC50: read-out: Corrector Assay B EC50, human intestinal enteroid cells, 18-24 h incubation, acute 10 μM forskolin + 300 nM ivacaftor;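 on all read-outs here: methyl oxonol membrane potential fluorescence followed over 15 min after switching to chloride-free buffer with forskolin, 100 µM IBMX and ivacaftor, in presence of CaCC blockers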
Experimental: Base medium (ADF+++) consisted of Advanced DMEM/Ham's F12, 2 mM Glutamax, 10 mM HEPES, 1 μg/ml penicillin/streptomycin.
Intestinal enteroid maintenance medium (IEMM) consisted of ADF+++, 1×B27 supplement, 1×N2 supplement, 1.25 mM N-acetyl cysteine, 10 mM Nicotinamide, 50 ng/mL hEGF, 10 nM Gastrin, 1 μg/mL hR-spondin-1, 100 ng/mL hNoggin, TGF-b type 1 inhibitor A-83-01, 100 μg/mL Primocin, 10 μM P38 MAPK inhibitor SB202190.
Bath 1 Buffer consisted of 1 mM MgCl2, 160 mM NaCl, 4.5 mM KCl, 10 mM HEPES, 10 mM Glucose, 2 mM CaCl2).
Chloride Free Buffer consisted of 1 mM Magnesium Gluconate, 2 mM Calcium Gluconate, 4.5 mM Potassium Gluconate, 160 mM Sodium Gluconate, 10 mM HEPES, 10 mM Glucose.
Bath 1 Dye Solution consisted of Bath 1 Buffer, 0.04% Pluronic F127, 20 μM Methyl Oxonol, 30 μM CaCCinh-A01, 30 μM Chicago Sky Blue.
Chloride Free Dye Solution consisted of Chloride Free Buffer, 0.04% Pluronic F127, 20 μM Methyl Oxonol, 30 μM CaCCinh-A01, 30 μM Chicago Sky Blue.
Chloride Free Dye Stimulation Solution consisted of Chloride Free Dye Solution, 10 μM forskolin, 100 μM IBMX, and 300 nM Ivacaftor.
Cells were recovered in cell recovery solution, collected by centrifugation at 650 rpm for 5 min at 4° C., resuspended in TryPLE and incubated for 5 min at 37° C. Cells were then collected by centrifugation at 650 rpm for 5 min at 4° C. and resuspended in IEMM containing 10 μM ROCK inhibitor (RI). The cell suspension was passed through a 40 μm cell strainer and resuspended at 1×10^6 cells/mL in IEMM containing 10 μM RI. Cells were seeded at 5000 cells/well into multi-well plates and incubated for overnight at 37° C., 95% humidity and 5% CO2 prior to assay.
Briefly, cells were washed 5 times in Bath 1 Buffer. Bath 1 Dye Solution was added and the cells were incubated for 25 min at room temperature. Following dye incubation, cells were washed 3 times in Chloride Free Dye Solution. Chloride transport was initiated by addition of Chloride Free Dye Stimulation Solution and the fluorescence signal was read for 15 min. The CFTR-mediated chloride transport for each condition was determined from the AUC of the fluorescence response to acute forskolin and 300 nM N-[2,4-bis(1,1-dimethylethyl)-5-hydroxyphenyl]-1,4-dihydro-4-oxoquinoline-3-carboxamide stimulation. Chloride transport was then expressed as a percentage of the chloride transport following treatment with 3 μM Compound A, 3 μM (R)-1-(2,2-difluorobenzo[d][1,3]dioxol-5-yl)-N-(1-(2,3-dihydroxypropyl)-6-fluoro-2-(1-hydroxy-2-methylpropan-2-yl)-1H-indol-5-yl)cyclopropanecarboxamide and 300 nM acute N-[2,4-bis(1,1-dimethylethyl)-5-hydroxyphenyl]-1,4-dihydro-4-oxoquinoline-3-carboxamide triple combination control (% Activity).

[2] = molecular target: T1, CFTR-mediated chloride transport; test: Corrector Assay A - membrane potential dye assay (enteroid cells); settings: for Corrector Assay A % activity: % of chloride transport of triple combination control (1 μM (14S)-dispiro macrocycle + 3 μM tezacaftor + 300 nM ivacaftor); for EC50: read-out: Corrector Assay A EC50, human intestinal enteroid cells, 18-24 h incubation, acute 10 μM forskolin + 300 nM ivacaftor

| Corrector Assay B % activity [1] | EC50 [1] [nM] | Corrector Assay A % activity [2] | EC50 [2] [nM] | Compound |
| --- | --- | --- | --- | --- |
| +++ (+++ is >60%) | 1000 to 3000 |  |  | CC1(C)C[C@@H]2CCC(c3ccccc3)Nc3cccc(n3)S(=O)(=O)NC(=O)c3cccnc3N1C2 (single isomer, unassigned) [Compound 288] |
| +++ (+++ is >60%) | < 1000 |  |  | CC1(C)C[C@@H]2CCC(c3ccccc3)Nc3cccc(n3)S(=O)(=O)NC(=O)c3cccnc3N1C2 (single isomer, unassigned) [Compound 289] |
| ++ (++ is 30-60%) | 1000 to 3000 |  |  | CC(C)(C)c1ccc2c(n1)N1C[C@@H](CCC(c3ccc(C(=O)O)cc3)Nc3cccc(n3)S(=O)(=O)NC2=O)CC1(C)C (single isomer, unassigned) [Compound 290] |
| ++ (++ is 30-60%) | 1000 to 3000 |  |  | CC(C)(C)c1ccc2c(n1)N1C[C@@H](CCC(c3ccc(C(=O)O)cc3)Nc3cccc(n3)S(=O)(=O)NC2=O)CC1(C)C (single isomer, unassigned) [Compound 291] |
| +++ (+++ is >60%) | < 1000 | +++ (+++ is >60%) | < 1000 | CC(C)(C)c1ccc2c(n1)N1C[C@@H](CCC(c3ccccn3)Nc3cccc(n3)S(=O)(=O)NC2=O)CC1(C)C (single isomer, unassigned) [Compound 292] |
| +++ (+++ is >60%) | < 1000 | ++ (++ is 30-60%) | < 1000 | CC(C)(C)c1ccc2c(n1)N1C[C@@H](CCC(c3ccccn3)Nc3cccc(n3)S(=O)(=O)NC2=O)CC1(C)C (single isomer, unassigned) [Compound 293] |
| +++ (+++ is >60%) | < 1000 | +++ (+++ is >60%) | < 1000 | CC(C)(C)c1ccc2c(n1)N1C[C@@H](CC[C@@H](c3ccccc3)Nc3cccc(n3)S(=O)(=O)NC2=O)CC1(C)C (single isomer, unassigned) [Compound 294] |
| +++ (+++ is >60%) | < 1000 | ++ (++ is 30-60%) | < 1000 | CC(C)(C)c1ccc2c(n1)N1C[C@@H](CC[C@@H](c3ccccc3)Nc3cccc(n3)S(=O)(=O)NC2=O)CC1(C)C (single isomer, unassigned) [Compound 295] |
| +++ (+++ is >60%) | < 1000 |  |  | CC(C)(C)c1ccc2c(n1)N1C[C@@H](CCC(c3cncnc3)Nc3cccc(n3)S(=O)(=O)NC2=O)CC1(C)C (single isomer, unassigned) [Compound 298] |
| +++ (+++ is >60%) | < 1000 |  |  | CC(C)C1CC[C@@H]2CN(c3nc(-n4ccc(OCCC5(C(F)(F)F)CC5)n4)ccc3C(=O)NS(=O)(=O)c3cccc(n3)N1)C(C)(C)C2 (single isomer, unassigned) [Compound 358] |
| + (+ is <30%) |  |  |  | CCCC1(C)CC2CCCNc3cccc(n3)S(=O)(=O)NC(=O)c3ccc(-n4ccc(OCCC5(C(F)(F)F)CC5)n4)nc3N1C2 (single isomer, unassigned) [Compound 365, 12-methyl-12-propyl-8-(3-{2-[1-(trifluoromethyl)cyclopropyl]ethoxy}-1H-pyrazol-1-yl)-2λ^6-thia-3,9,11,18,23-pentaazatetracyclo[17.3.1.111,14.05,10]tetracosa-1(22),5,7,9,19(23),20-hexaene-2,2,4-trione] |
| + (+ is <30%) |  |  |  | CCCC1(C)CC2CCCNc3cccc(n3)S(=O)(=O)NC(=O)c3ccc(-n4ccc(OCCC5(C(F)(F)F)CC5)n4)nc3N1C2 (single isomer, unassigned) [Compound 366, 12-methyl-12-propyl-8-(3-{2-[1-(trifluoromethyl)cyclopropyl]ethoxy}-1H-pyrazol-1-yl)-2λ^6-thia-3,9,11,18,23-pentaazatetracyclo[17.3.1.111,14.05,10]tetracosa-1(22),5,7,9,19(23),20-hexaene-2,2,4-trione] |
| +++ (+++ is >60%) | < 1000 |  |  | CCCC1(C)CC2CCCNc3cccc(n3)S(=O)(=O)NC(=O)c3ccc(-n4ccc(OCCC5(C(F)(F)F)CC5)n4)nc3N1C2 (single isomer, unassigned) [Compound 368, 12-methyl-12-propyl-8-(3-{2-[1-(trifluoromethyl)cyclopropyl]ethoxy}-1H-pyrazol-1-yl)-2λ^6-thia-3,9,11,18,23-pentaazatetracyclo[17.3.1.111,14.05,10]tetracosa-1(22),5,7,9,19(23),20-hexaene-2,2,4-trione] |
| +++ (+++ is >60%) | < 1000 |  |  | CC1(C)C[C@@H]2CCCN(C[C@@H](O)CO)c3cccc(n3)S(=O)(=O)NC(=O)c3ccc(-n4ccc(OCCC5(C(F)(F)F)CC5)n4)nc3N1C2 (single isomer, unassigned) [Compound 379] |
| +++ (+++ is >60%) | < 1000 |  |  | CC1(C)C[C@@H]2CCCN(C[C@H](O)CO)c3cccc(n3)S(=O)(=O)NC(=O)c3ccc(-n4ccc(OCCC5(C(F)(F)F)CC5)n4)nc3N1C2 (single isomer, unassigned) [Compound 381] |
| +++ (+++ is >60%) | < 1000 |  |  | CC1(C)C[C@@H]2CCCN(CC3COC3)c3cccc(n3)S(=O)(=O)NC(=O)c3ccc(-n4ccc(OCCC5(C(F)(F)F)CC5)n4)nc3N1C2 [Compound 359] |
| ++ (++ is 30-60%) | < 1000 |  |  | CC1(C)C[C@@H]2CCCN(CCCCCC#N)c3cccc(n3)S(=O)(=O)NC(=O)c3ccc(-n4ccc(OCCC5(C(F)(F)F)CC5)n4)nc3N1C2 [Compound 369] |
| ++ (++ is 30-60%) | < 1000 |  |  | Cn1cnnc1CN1CCC[C@@H]2CN(c3nc(-n4ccc(OCCC5(C(F)(F)F)CC5)n4)ccc3C(=O)NS(=O)(=O)c3cccc1n3)C(C)(C)C2 [Compound 373] |
| ++ (++ is 30-60%) | < 1000 |  |  | CN(C)C(=O)CN1CCC[C@@H]2CN(c3nc(-n4ccc(OCCC5(C(F)(F)F)CC5)n4)ccc3C(=O)NS(=O)(=O)c3cccc1n3)C(C)(C)C2 [Compound 376] |
| +++ (+++ is >60%) | < 1000 |  |  | CC1(C)C[C@@H]2CCCN(CCC#N)c3cccc(n3)S(=O)(=O)NC(=O)c3ccc(-n4ccc(OCCC5(C(F)(F)F)CC5)n4)nc3N1C2 [Compound 377] |
| +++ (+++ is >60%) | < 1000 |  |  | CC1(C)C[C@@H]2CCCN(CCC(N)=O)c3cccc(n3)S(=O)(=O)NC(=O)c3ccc(-n4ccc(OCCC5(C(F)(F)F)CC5)n4)nc3N1C2 [Compound 378, 3-[(14S)-12,12-Dimethyl-2,2,4-trioxo-8-(3-{2-[1-(trifluoromethyl)cyclopropyl]ethoxy}-1H-pyrazol-1-yl)-2λ^6-thia-3,9,11,18,23-pentaazatetracyclo[17.3.1.111,14.05,10]tetracosa-1(23),5(10),6,8,19,21-hexaen-18-yl]propanamide] |

| Compound | Corrector Assay B % activity [1] | EC50 [1] [nM] | Corrector Assay A % activity [2] | EC50 [2] [nM] |
| --- | --- | --- | --- | --- |
| CC1(C)C[C@@H]2CCC(c3ccc(C(=O)O)cc3)Nc3cccc(n3)S(=O)(=O)NC(=O)c3ccc(-n4ccc(OCCC5(C(F)(F)F)CC5)n4)nc3N1C2 (single isomer, unassigned) [Compound 370] | +++ (+++ is >60%) | 1000 to 3000 |  |  |
| CC1(C)C[C@@H]2CCC(c3ccc(C(=O)O)cc3)Nc3cccc(n3)S(=O)(=O)NC(=O)c3ccc(-n4ccc(OCCC5(C(F)(F)F)CC5)n4)nc3N1C2 (single isomer, unassigned) [Compound 371] | +++ (+++ is >60%) | < 1000 |  |  |
| CC1(C)C[C@@H]2CCC(c3cncnc3)Nc3cccc(n3)S(=O)(=O)NC(=O)c3ccc(-n4ccc(OCCC5(C(F)(F)F)CC5)n4)nc3N1C2 (single isomer, unassigned) [Compound 374] | +++ (+++ is >60%) | < 1000 |  |  |
| CC1(C)C[C@@H]2CCC(c3cncnc3)Nc3cccc(n3)S(=O)(=O)NC(=O)c3ccc(-n4ccc(OCCC5(C(F)(F)F)CC5)n4)nc3N1C2 (single isomer, unassigned) [Compound 375] | +++ (+++ is >60%) | < 1000 |  |  |
| CC1(C)CC2CN1c1nc(-n3ccc(OCCC4(C(F)(F)F)CC4)n3)ccc1C(=O)NS(=O)(=O)c1cccc(n1)NCCC2c1ccccc1 (single isomer, unassigned) [Compound 386, 12,12-Dimethyl-15-phenyl-8-(3-{2-[1-(trifluoromethyl)cyclopropyl]ethoxy}-1H-pyrazol-1-yl)-2λ^6-thia-3,9,11,18,23-pentaazatetracyclo[17.3.1.111,14.05,10]tetracosa-1(22),5,7,9,19(23),20-hexaene-2,2,4-trione] | ++ (++ is 30-60%) | < 1000 |  |  |
| CC1(C)CC2CC(c3ccccc3)CNc3cccc(n3)S(=O)(=O)NC(=O)c3ccc(-n4ccc(OCCC5(C(F)(F)F)CC5)n4)nc3N1C2 (single isomer, unassigned) [Compound 390, 12,12-dimethyl-16-phenyl-8-(3-{2-[1-(trifluoromethyl)cyclopropyl]ethoxy}-1H-pyrazol-1-yl)-2λ^6-thia-3,9,11,18,23-pentaazatetracyclo[17.3.1.111,14.05,10]tetracosa-1(22),5,7,9,19(23),20-hexaene-2,2,4-trione] | +++ (+++ is >60%) | < 1000 |  |  |
| CC1(C)CC2CC(c3ccccc3)CNc3cccc(n3)S(=O)(=O)NC(=O)c3ccc(-n4ccc(OCCC5(C(F)(F)F)CC5)n4)nc3N1C2 (single isomer, unassigned) [Compound 392, 12,12-dimethyl-16-phenyl-8-(3-{2-[1-(trifluoromethyl)cyclopropyl]ethoxy}-1H-pyrazol-1-yl)-2λ^6-thia-3,9,11,18,23-pentaazatetracyclo[17.3.1.111,14.05,10]tetracosa-1(22),5,7,9,19(23),20-hexaene-2,2,4-trione] | ++ (++ is 30-60%) | < 1000 |  |  |
